Results taken from the supplement of paper PMC10949913.
Values joined by “and” are separate entries in the source; they are usually repeats but may differ in a detail not shown here. Equal entries are not always repeated.

What was measured:
Experiment in all cases: area under concentration-response curve (viability) (AUC (a.u.)); higher = less active
Settings in all cases: 48 h
[1] = system: CU-ACC2
In short: (§1)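 Luminescence from CellTiter-Glo, read after 48 h, measured three adrenocortical carcinoma cell lines treated in 1,536-well plates with library compounds at 11 concentrations. Values were normalised per plate to vehicle and empty-well controls. The AC50 and area under the curve come from fitted concentration-response curves in inhibitory or non-responding classes only.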

[2] = system: NCI-H295R
In short: as §1

[3] = system: CU-ACC1
In short: as §1

Compound	area under concentration-response curve [1]	area under concentration-response curve [2]	area under concentration-response curve [3]
C=C1/C(=C/C=C2\CCCC3(C)[C@@H]([C@H](C)/C=C/C=C/C(O)(CC)CC)CC[C@@H]23)C[C@@H](O)C[C@@H]1O (some centres not stated)	576	522	480
O=C(O)C1CCCN(CCC=C(c2ccccc2)c2ccccc2)C1 (configuration not stated)	520	539	540
N#Cc1ccnc(N2C(=O)CC[C@H]2C(=O)N(c2cncc(F)c2)C(C(=O)NC2CC(F)(F)C2)c2ccccc2Cl)c1 (some centres not stated)	602	578	500
Cc1ccc(C(=O)c2cc(O)c(O)c([N+](=O)[O-])c2)cc1	645	598	551
COc1cc(-c2cc(-c3ccc(N4CCNCC4)cc3)cnc2C)cc(OC)c1OC	585	556	548
COc1cc(C[C@@H](CO)[C@H](CO)Cc2ccc(O)c(OC)c2)ccc1O	575	517	534
CCC/1=C(/NC2=C(C=N[N]2C1=O)C#N)C3=CC=CC=C3C	577 and 487	552 and 522	550 and 493
N#Cc1ccc(N(Cc2ccc(Br)cc2)n2cnnc2)cc1	633	598	413
O=C1NC(O)CCN1[C@@H]1O[C@H](CO)[C@@H](O)[C@H]1O (some centres not stated)	646	585	539
Oc1nc(-c2ccc(C(F)(F)F)cc2)nc2c1CSCC2	509	483	511
CCN(C(=O)c1ccccc1OC)c1cc2c(cc1N1CCNC[C@H]1C)n(C)c(=O)n2C	628	510	544
CCOC(=O)C(C)OC1=CC=CC2=C1\C=C/N(CC(=O)NC3=CC=C4OCCOC4=C3)C2=O (configuration not stated)	602	538	505
N#Cc1ccc(Cn2cncc2CN2CCN(c3cccc(Cl)c3)C(=O)C2)cc1	578	514	520
C[S+](=O)([O-])c1ccc(-c2nnc(/C=C/c3nnc(-c4ccc(C#N)cc4)o3)n2-c2ccccc2Cl)nc1	603	524	537
CN[C@@H]1[C@@H](O)[C@@H](O[C@@H]2[C@@H](O)[C@H](O[C@H]3O[C@H](CN)[C@@H](O)[C@H](O)[C@H]3O)[C@@H](N)C[C@H]2NC(=O)C(O)CN)OC[C@]1(C)O.O=S(=O)(O)O (some centres not stated)	601	553	526
CCCCCCCCCCCCCCCCCCOP(=O)([O-])OC1CC[N+](C)(C)CC1	534	449	418
O=C(Oc1ccc([N+](=O)[O-])cc1)N1CCC(C(O)(c2ccc3c(c2)OCO3)c2ccc3c(c2)OCO3)CC1	575	535	495
c1ccc2[nH]c(-c3cscn3)nc2c1	630	556	557
O=C1c2ccccc2-c2n[nH]c3cccc1c23	587	530	494
